Consider 19 compounds from ChEMBL document CHEMBL4312014, “Nitrothiadiazolo[3,2-a]pyrimidines as promising antiglycating agents” (Eur J Med Chem, 2020).

Assay [1] concerns Rattus norvegicus. The assay is described as follows: Ex vivo inhibition of DPP4 in Wistar rat serum assessed as p-nitroaniline formation at 10 mg/kg, po by incubating compound-treated serum with Gly-Pro-p-nitroanilide substrate and measured for 30 mins by microplate reader analysis. The assay is classed as functional, organism-based.
Assay [2] can be described thus: Anti-glycation activity assessed as inhibition of AGE formation by measuring decrease in glycated BSA protein level at 1000 uM incubated for 24 hrs in presence of glucose by fluorescence based assay relative to control. The assay is classed as functional.
Assay [3] is described as follows: Metal chelating activity assessed as inhibition of Cu2+ ion-induced oxidation of ascorbic acid compound treated with CuSO4.5H2O for 5 mins followed by ascorbate addition and measured immediately by spectrophotometric analysis.
The nature of assay [4]: Anti-glycation activity assessed as inhibition of AGE formation by measuring decrease in glycated BSA protein level at 100 uM incubated for 24 hrs in presence of glucose by fluorescence based assay relative to control. Type of assay: functional.
Assay [5] deals with T1, Dipeptidyl peptidase 4 (Homo sapiens, UniProt P27487). The note with it: Serum, at 100 µM.
Target sequence in this assay (P27487 whole entry, looked up): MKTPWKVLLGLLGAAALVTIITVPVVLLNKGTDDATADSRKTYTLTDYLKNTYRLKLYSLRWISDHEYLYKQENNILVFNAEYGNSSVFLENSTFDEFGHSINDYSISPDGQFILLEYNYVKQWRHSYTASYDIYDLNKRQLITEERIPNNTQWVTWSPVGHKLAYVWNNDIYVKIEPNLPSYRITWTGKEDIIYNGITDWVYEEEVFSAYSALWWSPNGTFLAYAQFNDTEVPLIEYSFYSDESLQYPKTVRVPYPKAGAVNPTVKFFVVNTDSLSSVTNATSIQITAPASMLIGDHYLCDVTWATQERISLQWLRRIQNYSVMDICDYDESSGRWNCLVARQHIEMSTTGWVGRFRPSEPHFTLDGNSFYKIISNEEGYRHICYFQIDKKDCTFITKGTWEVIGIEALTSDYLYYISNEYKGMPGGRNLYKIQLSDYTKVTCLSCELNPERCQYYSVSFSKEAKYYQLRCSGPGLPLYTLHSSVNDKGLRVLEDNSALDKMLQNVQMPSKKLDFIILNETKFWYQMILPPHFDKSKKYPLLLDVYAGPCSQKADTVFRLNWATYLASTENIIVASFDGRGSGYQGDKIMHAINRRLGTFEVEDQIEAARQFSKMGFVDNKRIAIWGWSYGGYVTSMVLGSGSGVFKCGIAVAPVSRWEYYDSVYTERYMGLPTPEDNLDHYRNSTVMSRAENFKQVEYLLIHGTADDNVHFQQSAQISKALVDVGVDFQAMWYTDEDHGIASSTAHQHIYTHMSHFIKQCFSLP
For assay [6], the target named is T1, Dipeptidyl peptidase 4. Type of assay: cell-free, Serum.
Target sequence in this assay (P27487 whole entry): as the sequence (P27487 whole entry, looked up) above
The nature of assay [7]: Anti-glycation activity assessed as inhibition of AGE formation by measuring decrease in glycated BSA protein level incubated for 24 hrs in presence of glucose by fluorescence based assay. The assay is classed as functional.
The test system of assay [8] is Rattus norvegicus. The assay is described as follows: Ex vivo inhibition of DPP4 in Wistar rat serum assessed as decrease in p-nitroaniline formation at 10 mg/kg, po by incubating 0 to 4 hrs compound-treated serum with Gly-Pro-p-nitroanilide substrate and measured for 30 mins by microplate reader analysis. Type of assay: functional, organism-based.
Assay [9] has as its system Rattus norvegicus. Nature of the assay: Ex vivo inhibition of DPP4 in Wistar rat serum assessed as decrease in p-nitroaniline formation at 10 mg/kg, po by incubating 0 to 2 hrs compound-treated serum with Gly-Pro-p-nitroanilide substrate and measured for 30 mins by microplate reader analysis. Type of assay: functional, organism-based.

Calls of active or inactive are those of the source. No cut-off for these calls is given here.

Usually inhibition stands for how much of the control response was suppressed. What is called IC50 is the concentration that gives 50% inhibition. Regarding `CC(=O)OCCNc1nc2scnn2c(=O)c1[N+](=O)[O-]`, the inhibition entry in the assay with Rattus norvegicus [1] is “Active”. The inhibition was 50.8% in [2] and 44.8% in [4]. In assay [3], the IC50 was more than 200 µM.

Consider `O=c1c([N+](=O)[O-])c(NCCO)nc2scnn12`, for which the inhibition result in the assay with Rattus norvegicus [1] was “Active”. Also, the inhibition in assay [2] was 44.4%; in assay [4], 29.5%. The IC50 in assay [3] came to 86.1 µM.

For the compound `O=c1c([N+](=O)[O-])c(NCCCCO)nc2scnn12`, the inhibition entry with Rattus norvegicus [1] is “Active”. The figures for the inhibition in assay [2] and in assay [4] were 43.6% and 26.1%, respectively. The IC50 in assay [3] is more than 200 µM.

As to `O=c1c([N+](=O)[O-])c(NCCc2ccc(O)cc2)nc2scnn12`, the figures for the inhibition (at Dipeptidyl peptidase 4 [5]; in assay [2]; in assay [4]) were 42.1%, 76.8% and 43.8%, respectively. Further, the 50% inhibitory concentration (IC50) at Dipeptidyl peptidase 4 [6] was more than 100 µM; in assay [7] it was 167 µM; in assay [3] it was more than 200 µM. Also, the inhibition result in the assay with Rattus norvegicus [1] was “Active”.

For the compound `CCCCNc1nc2scnn2c(=O)c1[N+](=O)[O-]`, the inhibition entry with Rattus norvegicus [1] was “Active”. Moreover, the figures for the inhibition in assay [2] and in assay [4] were 77% and 32.1%, respectively. Also, the IC50 in assay [7] is 204 µM; in [3], 79.1 µM.

Take `O=c1c([N+](=O)[O-])c(NCCCO)nc2scnn12`: in the assay on Rattus norvegicus [1], the inhibition entry is “Active”. In addition, the inhibition in [2] is 32.7%; in assay [4], 16.1%. Moreover, the IC50 in assay [3] was more than 200 µM.

As to `N#C[C@@H]1CCCN1C(=O)CNC12CC3CC(CC(O)(C3)C1)C2`, the inhibition result with Rattus norvegicus [8] was “Active”.

For the compound `CC1(C)OCC(CNc2nc3scnn3c(=O)c2[N+](=O)[O-])O1` (stereo not drawn), the inhibition entry with Rattus norvegicus [1] was “Active”. Also, the inhibition turned out to be 71.4% in assay [2] and 42.1% in assay [4]. Also, the IC50 in assay [7] stood at 209 µM; in assay [3], 48.1 µM.

For `CCc1ccc(CCOc2ccc(CC3SC(=O)NC3=O)cc2)nc1` (stereo not drawn) [PIOGLITAZONE], the IC50 in assay [3] worked out at 44.1 µM.

Turning to `CC(=O)OCCCNc1nc2scnn2c(=O)c1[N+](=O)[O-]`, in the assay on Rattus norvegicus [1], the inhibition entry was “Active”. Also, the inhibition is 37.2% in assay [2] and 12.5% in assay [4]. The IC50 in assay [3] is 115 µM.

On to `O=c1c([N+](=O)[O-])c(NCCc2ccc(Cl)cc2)nc2scnn12`, for which the inhibition entry in the assay with Rattus norvegicus [9] is “Active”. For the same compound, the inhibition at Dipeptidyl peptidase 4 [5] amounted to 69.8%; in [2], 87.4%; in assay [4] it was 48.8%. For the same compound, the IC50 is 55.9 µM at Dipeptidyl peptidase 4 [6], 134 µM in assay [7] and more than 200 µM in assay [3].

`O=c1c([N+](=O)[O-])c(NCC(O)CO)nc2scnn12` (stereo not drawn): the inhibition result with Rattus norvegicus [1] was “Active”. Also, the inhibition worked out at 33.7% in assay [2] and 10.3% in assay [4]. For the same compound, the 50% inhibitory concentration (IC50) in assay [3] is more than 200 µM.

For the compound `N=C(N)NN` [PIMAGEDINE], the inhibition in assay [2] was determined as 57.8%; in [4], 6%. Besides, the IC50 in assay [7] was 765 µM; in assay [3], more than 1000 µM.

For the compound `O=C(O)CCCCC1CCSS1` (stereo not drawn) [LIPOIC ACID, ALPHA], in assay [3], the IC50 turned out to be 68.9 µM.

For the compound `CC(=O)OCCCCNc1nc2scnn2c(=O)c1[N+](=O)[O-]`, the inhibition entry in the assay with Rattus norvegicus [1] was “Active”. In addition, the inhibition in [2] stood at 37.5%; in assay [4] it was 11.5%. Moreover, in assay [3], the IC50 is more than 200 µM.

As to `CCCNc1nc2scnn2c(=O)c1[N+](=O)[O-]`, the inhibition result with Rattus norvegicus [1] is “Active”. Besides, the inhibition in assay [2] is 52.5%; in [4], 14.9%. Also, the IC50 in assay [3] turned out to be 62 µM.

As for `CC(C)Nc1nc2scnn2c(=O)c1[N+](=O)[O-]`, the inhibition result in the assay with Rattus norvegicus [1] was “Active”. Moreover, the inhibition in [2] was found to be 69.6%; in [4], 30%. The half-inhibitory concentration (IC50) in [7] is 325 µM; in assay [3] it was more than 200 µM.

Turning to `CC(C)CNc1nc2scnn2c(=O)c1[N+](=O)[O-]`, in the assay on Rattus norvegicus [1], the inhibition result was “Active”. In addition, the inhibition in assay [2] is 73.9%; in [4] it was 23.1%. Further, the IC50 in [7] turned out to be 290 µM; in [3], 37.2 µM.

`CC(C)(C)Nc1nc2scnn2c(=O)c1[N+](=O)[O-]`: the inhibition result in the assay on Rattus norvegicus [1] was “Active”. Further, the inhibition was 63.8% in assay [2] and 21.3% in assay [4]. Moreover, the IC50 in assay [7] came to 181 µM; in [3], 56 µM.
